Measurements taken from patent US12077503B2, “Substituted cyclic amides and their use as herbicides” (FMC CORPORATION, priority 2015, dated 2024).

Key:
Experiment in all cases: Test E preemergence
Assay type in all cases: in vivo
Kochia (Kochia scoparia) = details: scale 0 to 100
How it was run: (§1)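 Seeds sown in silt loam treated preemergence, or plants 2 to 18 cm tall in peat-based potting medium treated postemergence, with test chemical in a non-phytotoxic solvent mixture containing surfactant. Kept in greenhouse 14 to 21 d, then visually rated against controls on a 0–100 scale (0 no effect, 100 complete control).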

[1] = system: Panicum, fall (fall Panicum, Panicum dichotomiflorum); details: scale 0 to 100
How it was run: as §1

[2] = system: arrowleaf Sida (Sida rhombifolia); details: scale 0 to 100
How it was run: as §1

[3] = system: beggarticks (hairy beggarticks, Bidens pilosa); details: scale 0 to 100
How it was run: as §1

corn (Zea mays) = details: scale 0 to 100
How it was run: as §1

[4] = system: crabgrass, large (large crabgrass, Digitaria sangumnalis); details: scale 0 to 100
How it was run: as §1

[5] = system: dayflower, VA (Virginia dayflower, Commelina virginica); details: scale 0 to 100
How it was run: as §1

[6] = system: field bindweed (Convolvulus arvensis); details: scale 0 to 100
How it was run: as §1

[7] = system: foxtail, giant (giant foxtail, Setaria faberii); details: scale 0 to 100
How it was run: as §1

[8] = system: foxtail, green (green foxtail, Setaria viridis); details: scale 0 to 100
How it was run: as §1

[9] = system: horseweed (Conyza canadensis); details: 31 g ai/ha, scale 0 to 100
How it was run: as §1

[10] = system: lambsquarters (Chenopodium album); details: scale 0 to 100
How it was run: as §1

[11] = system: morningglory (Ipomoea coccinea); details: scale 0 to 100
How it was run: as §1

[12] = system: nightshade (eastern black nightshade, Solanum ptycanthum); details: scale 0 to 100
How it was run: as §1

[13] = system: pigweed, palmer (palmer pigweed, Amaranthus palmeri); details: scale 0 to 100
How it was run: as §1

[14] = system: ragweed (common ragweed, Ambrosia elatior); details: scale 0 to 100
How it was run: as §1

[15] = system: ryegrass, Italian (Italian ryegrass, Lolium multiflorum); details: scale 0 to 100
How it was run: as §1

[16] = system: sandbur (southern sandbur, Cenchrus echinatus); details: scale 0 to 100
How it was run: as §1

[17] = system: surinam grass (Brachiaria decumbens); details: scale 0 to 100
How it was run: as §1

[18] = system: velvetleaf (Abutilon theophrasti); details: scale 0 to 100
How it was run: as §1

[19] = system: waterhemp (common waterhemp, Amaranthus rudis); details: scale 0 to 100
How it was run: as §1

CN1CC(c2cccc(C(F)(F)F)c2)C(C(=O)Nc2ccccc2S(C)(=O)=O)C1=O (centres unmarked) [Compound 637]
30: Plant response rating: Velvetleaf ([18]; 125 g ai/ha)
70: Plant response rating: Corn (corn (Zea mays); 250 g ai/ha)
95: Plant response rating: Panicum, Fall ([1]; 250 g ai/ha) | Plant response rating: Crabgrass, Large ([4]; 62 g ai/ha) | Plant response rating: Foxtail, Giant ([7]; 62 g ai/ha) | Plant response rating: Foxtail, Green ([8]; 125 g ai/ha)
35: Plant response rating: Panicum, Fall ([1]; 62 g ai/ha) | Plant response rating: Corn (corn (Zea mays); 125 g ai/ha) | Plant response rating: Field Bindweed ([6]; 250 g ai/ha) | Plant response rating: Morningglory ([11]; 125 g ai/ha) | Plant response rating: Morningglory ([11]; 250 g ai/ha) | Plant response rating: Ryegrass, Italian ([15]; 125 g ai/ha) | Plant response rating: Ryegrass, Italian ([15]; 250 g ai/ha) | Plant response rating: Sandbur ([16]; 62 g ai/ha) | Plant response rating: Velvetleaf ([18]; 250 g ai/ha)
85: Plant response rating: Ragweed ([14]; 250 g ai/ha) | Plant response rating: Waterhemp ([19]; 250 g ai/ha)
80: Plant response rating: Lambsquarters ([10]; 250 g ai/ha)
98: Plant response rating: Crabgrass, Large ([4]; 125 g ai/ha) | Plant response rating: Crabgrass, Large ([4]; 250 g ai/ha) | Plant response rating: Foxtail, Giant ([7]; 125 g ai/ha) | Plant response rating: Foxtail, Giant ([7]; 250 g ai/ha) | Plant response rating: Foxtail, Green ([8]; 250 g ai/ha)
90: Plant response rating: Kochia (Kochia (Kochia scoparia); 125 g ai/ha) | Plant response rating: Kochia (Kochia (Kochia scoparia); 250 g ai/ha) | Plant response rating: Panicum, Fall ([1]; 125 g ai/ha) | Plant response rating: Crabgrass, Large ([4]; 31 g ai/ha) | Plant response rating: Lambsquarters ([10]; 125 g ai/ha) | Plant response rating: Sandbur ([16]; 125 g ai/ha) | Plant response rating: Sandbur ([16]; 250 g ai/ha) | Plant response rating: Surinam Grass ([17]; 250 g ai/ha)
0: Plant response rating: Kochia (Kochia (Kochia scoparia); 31 g ai/ha) | Plant response rating: Panicum, Fall ([1]; 31 g ai/ha) | Plant response rating: Arrowleaf Sida ([2]; 31 g ai/ha) | Plant response rating: Arrowleaf Sida ([2]; 62 g ai/ha) | Plant response rating: Arrowleaf Sida ([2]; 125 g ai/ha) | Plant response rating: Arrowleaf Sida ([2]; 250 g ai/ha) | Plant response rating: Beggarticks ([3]; 31 g ai/ha) | Plant response rating: Beggarticks ([3]; 62 g ai/ha) | Plant response rating: Beggarticks ([3]; 125 g ai/ha) | Plant response rating: Beggarticks ([3]; 250 g ai/ha) | Plant response rating: Corn (corn (Zea mays); 31 g ai/ha) | Plant response rating: Corn (corn (Zea mays); 62 g ai/ha) | Plant response rating: Dayflower, VA ([5]; 31 g ai/ha) | Plant response rating: Dayflower, VA ([5]; 62 g ai/ha) | Plant response rating: Dayflower, VA ([5]; 125 g ai/ha) | Plant response rating: Field Bindweed ([6]; 31 g ai/ha) | Plant response rating: Field Bindweed ([6]; 62 g ai/ha) | Plant response rating: Field Bindweed ([6]; 125 g ai/ha) | Plant response rating: Horseweed [9] | Plant response rating: Lambsquarters ([10]; 62 g ai/ha) | Plant response rating: Morningglory ([11]; 31 g ai/ha) | Plant response rating: Morningglory ([11]; 62 g ai/ha) | Plant response rating: Nightshade ([12]; 31 g ai/ha) | Plant response rating: Pigweed, Palmer ([13]; 31 g ai/ha) | Plant response rating: Pigweed, Palmer ([13]; 62 g ai/ha) | Plant response rating: Pigweed, Palmer ([13]; 125 g ai/ha) | Plant response rating: Ragweed ([14]; 31 g ai/ha) | Plant response rating: Ragweed ([14]; 62 g ai/ha) | Plant response rating: Ryegrass, Italian ([15]; 31 g ai/ha) | Plant response rating: Sandbur ([16]; 31 g ai/ha) | Plant response rating: Velvetleaf ([18]; 31 g ai/ha) | Plant response rating: Velvetleaf ([18]; 62 g ai/ha)
20: Plant response rating: Dayflower, VA ([5]; 250 g ai/ha) | Plant response rating: Ragweed ([14]; 125 g ai/ha)
50: Plant response rating: Ryegrass, Italian ([15]; 62 g ai/ha) | Plant response rating: Surinam Grass ([17]; 62 g ai/ha) | Plant response rating: Waterhemp ([19]; 31 g ai/ha)
15: Plant response rating: Nightshade ([12]; 62 g ai/ha)
40: Plant response rating: Kochia (Kochia (Kochia scoparia); 62 g ai/ha) | Plant response rating: Nightshade ([12]; 250 g ai/ha) | Plant response rating: Waterhemp ([19]; 62 g ai/ha)
10: Plant response rating: Surinam Grass ([17]; 31 g ai/ha)
25: Plant response rating: Nightshade ([12]; 125 g ai/ha)
65: Plant response rating: Foxtail, Green ([8]; 31 g ai/ha) | Plant response rating: Pigweed, Palmer ([13]; 250 g ai/ha) | Plant response rating: Waterhemp ([19]; 125 g ai/ha)
75: Plant response rating: Foxtail, Giant ([7]; 31 g ai/ha) | Plant response rating: Foxtail, Green ([8]; 62 g ai/ha) | Plant response rating: Surinam Grass ([17]; 125 g ai/ha)
